Results as given in ChEMBL document CHEMBL5260795, “Antifungal potential of marine natural products” (Eur J Med Chem, 2017).
In brackets after ≈: the same amount, converted by molar mass. Where a SMILES comes first, the peptide text is derived from it. The star is where a group is joined. Tridecanoyl(3R-OH,11-Me) = CCC(C)CCCCCCC[C@@H](O)CC(=O)*; X3 = CCC(C)CCCCCCCC[C@@H](O)CC(=O)*

Key:
[1] = Inhibition of Candida albicans CaCdr1p transporter assessed as reduction in rhodamine 6G efflux
[2] = Inhibition of Candida albicans CaCdr1p transporter ATPase activity
[3] = test system: Candida albicans; experiment: Antifungal activity against Candida albicans assessed as fungal growth inhibition; assay type: functional
[4] = test system: Candida albicans; experiment: Antifungal activity against Candida albicans; assay type: functional, organism-based
[5] = test system: Candida albicans; experiment: Antifungal activity against Candida albicans ATCC 24433; assay type: functional
[6] = test system: Saccharomyces cerevisiae; experiment: Antifungal activity against Saccharomyces cerevisiae; assay type: functional
[7] = test system: Rhizoctonia solani; experiment: Antifungal activity against Rhizoctonia solani incubated for 48 hrs by standard broth dilution method; assay type: functional
[8] = test system: Phytophthora capsici; experiment: Antifungal activity against Phytophthora capsici incubated for 48 hrs by standard broth dilution method; assay type: functional
[9] = test system: Botrytis cinerea; experiment: Antifungal activity against Botrytis cinerea incubated for 48 hrs by standard broth dilution method; assay type: functional
[10] = test system: Colletotrichum acutatum; experiment: Antifungal activity against Colletotrichum acutatum incubated for 48 hrs by standard broth dilution method; assay type: functional
[11] = test system: Aspergillus niger; experiment: Antimicrobial activity against Aspergillus niger incubated for 72 hrs by standard broth dilution method; assay type: functional
[12] = test system: Botrytis cinerea; experiment: Antimicrobial activity against Botrytis cinerea incubated for 72 hrs by standard broth dilution method; assay type: functional
[13] = test system: Colletotrichum acutatum; experiment: Antimicrobial activity against Colletotrichum acutatum incubated for 72 hrs by standard broth dilution method; assay type: functional
[14] = test system: Rhizoctonia solani; experiment: Antimicrobial activity against Rhizoctonia solani incubated for 72 hrs by standard broth dilution method; assay type: functional
[15] = test system: Candida albicans; experiment: Antimicrobial activity against Candida albicans incubated for 72 hrs by standard broth dilution method; assay type: functional
[16] = test system: Saccharomyces cerevisiae; experiment: Antimicrobial activity against Saccharomyces cerevisiae incubated for 72 hrs by standard broth dilution method; assay type: functional
[17] = test system: Aspergillus niger; experiment: Antifungal activity against Aspergillus niger; assay type: functional
[18] = test system: Rhizoctonia solani; experiment: Antifungal activity against Rhizoctonia solani; assay type: functional
[19] = test system: Botrytis cinerea; experiment: Antifungal activity against Botrytis cinerea; assay type: functional
[20] = test system: Colletotrichum acutatum; experiment: Antifungal activity against Colletotrichum acutatum; assay type: functional

SMILES: CCCCC[C@@H]1CC(=O)N[C@@H](CC(C)C)C(=O)N[C@H](Cc2ccccc2)C(=O)N[C@@H](CC(C)C)C(=O)N[C@@H](Cc2ccccc2)C(=O)O1
- IC50 [1]: 3.74 µg/mL (≈ 5.64 µM)
- IC50 [2]: 0.46 µg/mL (≈ 0.694 µM)

SMILES: CCCC[C@H](CC)C1NC(=O)c2ccccc2N1 (stereo not given in full)
- MIC [3]: 0.62 µg/mL (≈ 2.52 µM)

SMILES: C[C@@H]1NC(=O)[C@@H](Cc2ccccc2)NC(=O)[C@@H](CO)NC(=O)c2ccccc2NC(=O)/C(=C\c2c[nH]c3ccccc23)NC(=O)[C@H]([C@@H](C)O)NC1=O
- MIC [4]: 2.48 µg/mL (≈ 3.49 µM)

SMILES: CC(C)C[C@@H](C)[C@@H](O)[C@@H](C)C(=O)N[C@H](C)C(=O)N[C@@H](CCCNC(=N)N)[C@@H](O)[C@@H](O)C(=O)N[C@@H](C(=O)N[C@@H](C(=O)O)[C@@H](C)O)[C@@H](C)CC(N)=O
- MIC [5]: 0.07 µg/mL (≈ 0.0974 µM)

SMILES: CCCCCCCCCCCC(=O)N(CCO)CCO
- MIC [6]: 0.22 µg/mL (≈ 0.765 µM)

SMILES: CC(C)C[C@H](NC(=O)[C@@H](CCCNC(=N)N)NC(=O)[C@H](NC(=O)[C@H](NC(=O)[C@@H](NC(=O)[C@H](O)[C@H](O)[C@H](CCCNC(=N)N)NC(=O)[C@@H](C)NC(=O)[C@H](C)[C@H](O)[C@H](C)CC(C)C)[C@@H](C)[C@@H](C)C(N)=O)[C@@H](C)O)[C@@H](C)O)C(=O)N(C)[C@@H](CCC(N)=O)C(=O)O
- MIC [4]: 0.1 µg/mL (≈ 0.0803 µM)

SMILES: C=C(CC[C@@H](C)[C@H]1CC[C@H]2C3=C(CC[C@]12C)[C@@]1(C)CC[C@H](O)C[C@@H]1C(=O)O3)C(C)C
- MIC [4]: 0.79 µg/mL (≈ 1.91 µM)

SMILES: CCC(C)CCCCCCC[C@@H](O)CC(=O)N[C@@H](CC(C)C)C(=O)N[C@@H](CCC(=O)O)C(=O)N[C@@H](CC(C)C)C(=O)N[C@@H](CC(C)C)C(=O)O (stereo partly drawn) ({Tridecanoyl(3R-OH,11-Me)}-LELL-OH)
- MIC [7]: 0.01 µg/mL (≈ 0.014 µM)
- MIC [8]: 0.01 µg/mL (≈ 0.014 µM)
- MIC [9]: 0.01 µg/mL (≈ 0.014 µM)
- MIC [10]: 0.01 µg/mL (≈ 0.014 µM)

SMILES: CO[C@H]1/C=C/C=C/CCC[C@@H](C)OC(=O)/C=C\C=C\C[C@H](O[C@@H]2O[C@@H](CO)[C@@H](O)[C@H](O)[C@H]2O)/C=C/C=C\C[C@H](O)C1
- MIC [11]: 0.02 µg/mL (≈ 0.0346 µM)
- MIC [12]: 0.02 µg/mL (≈ 0.0346 µM)
- MIC [13]: 0.02 µg/mL (≈ 0.0346 µM)
- MIC [14]: 0.02 µg/mL (≈ 0.0346 µM)
- MIC [15]: 0.02 µg/mL (≈ 0.0346 µM)
- MIC [16]: 0.02 µg/mL (≈ 0.0346 µM)

SMILES: CCCC[C@H](CC)c1nc2ccccc2c(=O)[nH]1
- MIC [3]: 0.62 µg/mL (≈ 2.54 µM)

SMILES: CC[C@H](CCCCCCCCCCCCC(=O)N[C@@H](C)C(=O)O)O[C@@H]1O[C@H](COC(=O)CCC(=O)O)[C@@H](O)[C@H](O)[C@H]1O
- MIC [17]: 0.02 µg/mL (≈ 0.033 µM)
- MIC [18]: 0.02 µg/mL (≈ 0.033 µM)
- MIC [19]: 0.02 µg/mL (≈ 0.033 µM)
- MIC [20]: 0.02 µg/mL (≈ 0.033 µM)
- MIC [4]: 0.02 µg/mL (≈ 0.033 µM)

SMILES: Cc1ccc(CC2CCC(=O)N2)c(C)c1 (stereo not given)
- MIC [17]: 1 µg/mL (≈ 4.92 µM)

SMILES: C[C@@H]1CCCCC/C=C/[C@H](O)C[C@@H](O)C/C=C\C=C\[C@@H](O[C@@H]2O[C@@H](CO)[C@H](O)[C@@H](O)[C@@H]2O)C/C=C/C=C\C(=O)O1
- MIC [11]: 0.02 µg/mL (≈ 0.0353 µM)
- MIC [12]: 0.02 µg/mL (≈ 0.0353 µM)
- MIC [13]: 0.02 µg/mL (≈ 0.0353 µM)
- MIC [14]: 0.02 µg/mL (≈ 0.0353 µM)
- MIC [15]: 0.02 µg/mL (≈ 0.0353 µM)
- MIC [16]: 0.02 µg/mL (≈ 0.0353 µM)

SMILES: C[C@@H]1CCC/C=C/C=C/[C@H](O)C[C@@H](O)C/C=C\C=C\[C@@H](OC(=O)CCC(=O)O[C@H]2O[C@@H](CO)[C@H](O)[C@@H](O)[C@@H]2O)C/C=C/C=C\C(=O)O1
- MIC [11]: 0.02 µg/mL (≈ 0.0301 µM)
- MIC [12]: 0.02 µg/mL (≈ 0.0301 µM)
- MIC [13]: 0.02 µg/mL (≈ 0.0301 µM)
- MIC [14]: 0.02 µg/mL (≈ 0.0301 µM)
- MIC [15]: 0.02 µg/mL (≈ 0.0301 µM)
- MIC [16]: 0.02 µg/mL (≈ 0.0301 µM)

SMILES: C[C@@H]1CCC/C=C/C=C/[C@H](O)C[C@@H](O)C/C=C\C=C\[C@@H](O[C@@H]2O[C@@H](CO)[C@H](O)[C@@H](O)[C@@H]2O)C/C=C/C=C\C(=O)O1
- MIC [11]: 0.02 µg/mL (≈ 0.0354 µM)
- MIC [12]: 0.02 µg/mL (≈ 0.0354 µM)
- MIC [13]: 0.02 µg/mL (≈ 0.0354 µM)
- MIC [14]: 0.02 µg/mL (≈ 0.0354 µM)
- MIC [15]: 0.02 µg/mL (≈ 0.0354 µM)
- MIC [16]: 0.02 µg/mL (≈ 0.0354 µM)

SMILES: CCC(C)CCCCCCCC[C@@H](O)CC(=O)N[C@@H](CCC(=O)OC)C(=O)N[C@@H](CC(C)C)C(=O)N[C@@H](CC(C)C)C(=O)N[C@@H](CC(C)C)C(=O)O (stereo not given in full) (X3-E(OMe)LLL-OH)
- MIC [7]: 0.01 µg/mL (≈ 0.0135 µM)
- MIC [8]: 0.01 µg/mL (≈ 0.0135 µM)
- MIC [9]: 0.01 µg/mL (≈ 0.0135 µM)
- MIC [10]: 0.01 µg/mL (≈ 0.0135 µM)

SMILES: CCC[C@@H]1CC(=O)N[C@@H](CC(C)C)C(=O)N[C@H](Cc2ccccc2)C(=O)N[C@@H](CC(C)C)C(=O)N[C@@H](Cc2ccccc2)C(=O)O1
- IC50 [1]: 2.29 µg/mL (≈ 3.61 µM)
- IC50 [2]: 0.31 µg/mL (≈ 0.488 µM)

SMILES: C[C@@H]1CCC/C=C/C=C/[C@H](O)C[C@@H](O)C[C@@H]2O[C@@H]2/C=C/[C@@H](O)C/C=C/C=C\C(=O)O1 [GAGEOMACROLACTIN 1]
- MIC [11]: 0.02 µg/mL (≈ 0.0478 µM)
- MIC [12]: 0.02 µg/mL (≈ 0.0478 µM)
- MIC [13]: 0.02 µg/mL (≈ 0.0478 µM)
- MIC [14]: 0.02 µg/mL (≈ 0.0478 µM)
- MIC [15]: 0.02 µg/mL (≈ 0.0478 µM)
- MIC [16]: 0.02 µg/mL (≈ 0.0478 µM)

SMILES: CCCCCCCCCCCCCCC(=O)OCC(O)CO[C@@H]1O[C@H](CO[C@@H]2C[C@H](CO)[C@@H](O)[C@H](O)[C@H]2O)[C@@H](O)[C@H](O)[C@H]1O (stereo not given in full)
- MIC [17]: 0.02 µg/mL (≈ 0.0313 µM)
- MIC [18]: 0.02 µg/mL (≈ 0.0313 µM)
- MIC [19]: 0.02 µg/mL (≈ 0.0313 µM)
- MIC [20]: 0.02 µg/mL (≈ 0.0313 µM)
- MIC [4]: 0.02 µg/mL (≈ 0.0313 µM)
